We go through four molecules from the NIST ThermoML archive (doi:10.1016/j.jct.2018.12.023).

± gives the expanded uncertainty stated by the source.

The conditions of the data set: Liquid, Ebulliometric method (Recirculating still).

With `CCO` [ethanol], the “vapor or sublimation pressure” value (351.45 K) was determined as 101.3 ± 1.6 kPa. In the case of `CCOC(=O)CC` [ethyl propanoate], the “vapor or sublimation pressure” value (372.25 K) came to 101.3 ± 1.6 kPa. Take `CCI` [iodoethane]: for the setting “345.5 K”, the “vapor or sublimation pressure” value was found to be 101.3 ± 1.6 kPa. In the case of `CCC(=O)O` [propanoic acid], the “vapor or sublimation pressure” value (414.32 K) is reported as 101.3 ± 1.6 kPa.
